smiles,measurement,value
"CCC(=O)Nc1ccc(-c2noc(C(F)(F)F)n2)cn1 [Ex-1, N-[5-[5-(trifluoromethyl)-1,2,4-oxadiazol-3-yl]-2-pyridyl]propanamide]",melting point,130 °C

# — patent publication US20180354920A1, “SUBSTITUTED OXADIAZOLES FOR COMBATING PHYTOPATHOGENIC FUNGI” (BASF SE, priority 2015, published 2018)
